Experimental data taken from ChEMBL document CHEMBL1137068, “Design, synthesis and evaluation of bicyclic benzamides as novel 5-HT1F receptor agonists” (Bioorg Med Chem Lett, 2004).

Legend:
[1] = molecular target: T1, 5-hydroxytryptamine receptor 1F (Homo sapiens, UniProt P30939); assay: In vitro binding affinity for human 5-hydroxytryptamine 1F receptor
T1 sequence (P30939 whole entry): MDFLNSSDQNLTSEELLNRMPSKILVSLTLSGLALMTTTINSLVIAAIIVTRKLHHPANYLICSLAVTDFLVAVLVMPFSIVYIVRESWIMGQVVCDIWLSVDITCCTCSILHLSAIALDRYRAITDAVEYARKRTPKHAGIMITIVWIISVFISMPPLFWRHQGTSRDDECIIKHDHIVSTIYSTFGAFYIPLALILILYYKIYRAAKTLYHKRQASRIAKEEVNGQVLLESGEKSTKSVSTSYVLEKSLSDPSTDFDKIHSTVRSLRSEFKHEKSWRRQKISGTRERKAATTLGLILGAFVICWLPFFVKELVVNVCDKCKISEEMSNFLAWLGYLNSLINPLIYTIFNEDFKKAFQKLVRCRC

[2] = molecular target: T2, 5-hydroxytryptamine receptor 1D (Homo sapiens, UniProt P28221); assay: In vitro binding affinity for human 5-hydroxytryptamine 1D receptor
[3] = molecular target: T3, 5-hydroxytryptamine receptor 1B (Homo sapiens, UniProt P28222); assay: In vitro binding affinity for human 5-hydroxytryptamine 1B receptor
[4] = molecular target: T4, 5-hydroxytryptamine receptor 1A (Homo sapiens, UniProt P08908); assay: In vitro binding affinity for human 5-hydroxytryptamine 1A receptor
T4 sequence (P08908 whole entry): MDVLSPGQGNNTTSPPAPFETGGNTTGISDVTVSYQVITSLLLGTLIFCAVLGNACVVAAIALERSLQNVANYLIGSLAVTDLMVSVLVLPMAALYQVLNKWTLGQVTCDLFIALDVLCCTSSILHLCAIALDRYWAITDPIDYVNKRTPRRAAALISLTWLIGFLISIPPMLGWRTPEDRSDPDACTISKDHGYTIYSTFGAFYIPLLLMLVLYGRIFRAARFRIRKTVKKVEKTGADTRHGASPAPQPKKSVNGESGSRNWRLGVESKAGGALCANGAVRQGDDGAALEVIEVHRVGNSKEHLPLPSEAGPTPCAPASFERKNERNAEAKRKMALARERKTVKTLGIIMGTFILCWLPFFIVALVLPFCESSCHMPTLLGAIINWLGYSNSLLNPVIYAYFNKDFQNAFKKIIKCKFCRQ

[5] = molecular target: T3, 5-hydroxytryptamine receptor 1B; assay: Inhibitory activity against human 5-hydroxytryptamine 1B receptor; conditions: concentration not given here
[6] = molecular target: T5, 5-hydroxytryptamine receptor 1F (Homo sapiens) (UniProt P30939); assay: Maximum stimulation of [35S]GTP-gamma-S, binding to human 5-hydroxytryptamine 1F receptor expressed in Mouse LM(tk-) cells relative to maximum effect of 5-HT; format: functional, cell-based
T5 sequence (whole entry): T1 sequence (P30939 whole entry)

Homo sapiens [7] = species on record: Homo sapiens; assay: Ratio of binding affinity for 5-hydroxytryptamine 1A receptor to that of 5-hydroxytryptamine 1F receptor
Homo sapiens [8] = species on record: Homo sapiens; assay: Ratio of binding affinity for 5-hydroxytryptamine 1D receptor to that of 5-hydroxytryptamine 1F receptor
[9] = molecular target: T1, 5-hydroxytryptamine receptor 1F; assay: Stimulation of [35S]GTP-gamma-S, binding to cloned human 5-hydroxytryptamine 1F receptor expressed in Mouse LM(tk-) cells; format: functional, cell-based
[10] = molecular target: T2, 5-hydroxytryptamine receptor 1D; assay: Inhibitory activity against human 5-hydroxytryptamine 1D receptor; conditions: concentration not given here
[11] = molecular target: T2, 5-hydroxytryptamine receptor 1D; assay: Inhibitory activity against 5-hydroxytryptamine 1D receptor at 10 uM
[12] = molecular target: T3, 5-hydroxytryptamine receptor 1B; assay: Inhibitory activity against 5-hydroxytryptamine 1B receptor at 10 uM

T2 sequence (P28221 whole entry): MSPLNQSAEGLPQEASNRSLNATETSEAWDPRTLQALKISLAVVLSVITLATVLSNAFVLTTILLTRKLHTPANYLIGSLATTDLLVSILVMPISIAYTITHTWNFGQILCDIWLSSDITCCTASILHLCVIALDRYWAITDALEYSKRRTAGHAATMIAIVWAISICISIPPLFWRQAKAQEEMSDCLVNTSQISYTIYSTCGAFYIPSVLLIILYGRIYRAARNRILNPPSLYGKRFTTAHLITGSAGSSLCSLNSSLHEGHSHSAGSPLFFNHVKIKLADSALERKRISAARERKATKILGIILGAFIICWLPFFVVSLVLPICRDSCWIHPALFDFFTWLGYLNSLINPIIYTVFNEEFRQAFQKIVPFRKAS
T3 sequence (P28222 whole entry): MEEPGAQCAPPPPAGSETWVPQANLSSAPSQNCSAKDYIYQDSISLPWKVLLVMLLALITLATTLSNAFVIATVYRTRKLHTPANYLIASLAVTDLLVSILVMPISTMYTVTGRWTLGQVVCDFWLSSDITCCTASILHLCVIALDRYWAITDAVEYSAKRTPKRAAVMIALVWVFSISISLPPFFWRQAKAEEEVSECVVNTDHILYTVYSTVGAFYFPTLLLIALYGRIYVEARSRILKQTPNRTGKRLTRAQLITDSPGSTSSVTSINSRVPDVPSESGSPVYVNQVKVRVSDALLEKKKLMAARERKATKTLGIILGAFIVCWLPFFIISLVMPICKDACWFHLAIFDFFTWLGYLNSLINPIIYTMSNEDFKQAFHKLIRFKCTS

Structure (SMILES)	Ki [1] [nM]	Ki [2] [nM]	Ki [4] [nM]	Selectivity ratio (Homo sapiens [7])	also measured
CN1CCC(n2ccc3ccc(NC(=O)c4ccc(F)cc4)cc32)CC1	2.2	140	11	–	Ki [3]: 260 nM
CN1CCC(N2CCOc3ccc(NC(=O)c4ccc(F)cc4)cc32)CC1	520	2300	860	–	inhibition [5]: < 50%
CN1CCC(C2CNc3ccc(NC(=O)c4ccc(F)cc4)cc32)CC1 (stereo in doubt; form 1) [listing 1 of 2 here]	8.6	–	250	–	–
CN1CCC(C2CNc3ccc(NC(=O)c4ccc(F)cc4)cc32)CC1 (stereo in doubt; form 2) [listing 1 of 2 here]	–	–	–	–	inhibition [5]: < 50%
CN1CCC(N2CNc3ccc(NC(=O)c4ccc(F)cc4Cl)cc32)CC1	13	–	–	70	Emax [6]: 98%; Selectivity ratio (Homo sapiens [8]): 80; EC50 [9]: 63 nM
CN1CCC(C2CNc3ccc(NC(=O)c4ccc(F)cc4)cc32)CC1 (stereo in doubt; form 1) [listing 2 of 2 here]	–	–	–	–	inhibition [5]: < 50%
CN1CCC(c2noc3ccc(NC(=O)c4ccc(F)cc4F)cc23)CC1	12	–	–	10	Emax [6]: 73%; EC50 [9]: 470 nM
CN1CCC(n2ncc3ccc(NC(=O)c4ccc(F)cc4)cc32)CC1	4.1	–	310	–	Ki [3]: 2400 nM; inhibition [10]: < 50%
CN1CCC(C2CNc3ccc(NC(=O)c4ccc(F)cc4)cc32)CC1 (stereo in doubt; 3) [listing 1 of 2 here]	–	–	–	30	Selectivity ratio (Homo sapiens [8]): 250; inhibition [5]: < 50%
CN1CCC(N2CNc3ccc(NC(=O)c4c(F)cc(F)cc4F)cc32)CC1	17	–	–	50	Emax [6]: 95%; Selectivity ratio (Homo sapiens [8]): 120; EC50 [9]: 50 nM
CN1CCC(N2CCc3ccc(NC(=O)c4ccc(F)cc4)cc32)CC1	4.8	210	12	–	Ki [3]: 440 nM
CN1CCC(c2n[nH]c3ccc(NC(=O)c4ccc(F)cc4)cc23)CC1	3.9	3100	870	–	Ki [3]: 2300 nM
CN1CCC(C2CNc3ccc(NC(=O)c4ccc(F)cc4)cc32)CC1 (stereo in doubt; 3) [listing 2 of 2 here]	9	2300	240	–	–
CN1CCC(C2CNc3ccc(NC(=O)c4ccc(F)cc4)cc32)CC1 (stereo in doubt; form 2) [listing 2 of 2 here]	9.6	–	250	–	–
CN1CCC(c2noc3ccc(NC(=O)c4ccc(F)cc4)cc23)CC1	17	–	160	10	inhibition [11]: < 50%; inhibition [12]: < 50%
CN1CCC(c2noc3ccc(NC(=O)c4ccc(F)cc4Cl)cc23)CC1	3.6	–	–	30	Emax [6]: 71%; EC50 [9]: 140 nM
